Experimental findings from paper PMC10470313, “Developing a peptide to disrupt cohesin head domain interactions” (iScience, 2023) are described below.

A word on the Kd: it is a measure of binding affinity in units of concentration.

Where no end group is shown, it is not given here.

The test has as its target T1, Smc3 head domain (Saccharomyces cerevisiae, UniProt P47037).
T1 construct: C′ terminal (amino acids 1001-1230); linker […]; made in house; host or cells: E. coli BL21
T1 sequence (P47037 with tags, fused parts or gaps): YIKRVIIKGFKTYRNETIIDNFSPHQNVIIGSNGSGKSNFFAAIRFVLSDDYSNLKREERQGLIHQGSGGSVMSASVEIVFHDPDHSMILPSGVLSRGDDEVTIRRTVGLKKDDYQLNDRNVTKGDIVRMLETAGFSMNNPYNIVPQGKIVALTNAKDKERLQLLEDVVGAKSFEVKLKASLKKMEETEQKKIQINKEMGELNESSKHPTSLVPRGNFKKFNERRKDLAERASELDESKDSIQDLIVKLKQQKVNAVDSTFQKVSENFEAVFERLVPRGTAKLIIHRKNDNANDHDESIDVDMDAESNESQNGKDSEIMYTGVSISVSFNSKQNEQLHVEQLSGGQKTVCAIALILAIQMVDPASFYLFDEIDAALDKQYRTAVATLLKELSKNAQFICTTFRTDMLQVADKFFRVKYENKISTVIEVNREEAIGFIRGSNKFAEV
The test is described as follows: Field-effect biosensing (FEB Agile R100) binding of peptide to Smc3 head domain. Particulars: 500 nM peptide immobilized on graphene chip, Hill fit or kon/koff. As to the method:
Accordingly, we explored the ability of CIP3 to bind Smc3 in-vitro. We synthesized CIP3-TAT and purified it (Figures S2A and S2B. Purification of CIP3-TAT and Smc3 head domain, related to Figure 3), and the kinetic binding of the peptide to a purified Smc3 head domain (Figures S2C and S2D. Purification of CIP3-TAT and Smc3 head domain, related to Figure 3) was explored by FEB Agile R100 (Figures 3C and 3D). The binding kinetics is determined by measuring the current of the chip that is changed when the analyzed molecules form a complex. The peptide was immobilized on the sensor chip, and the analyte, purified Smc3 head domain, was applied in solution to the chip. The changes in the current were monitored as increasing concentrations of analyte were applied to the chip. […]
The binding kinetics of cohesin-inhibiting peptide 3 (CIP3) to Smc3 were measured by field-effect biosensing (FEB) Agile R100 label-free binding assay (Cardea), following their standard protocol, and as we have done previously,.[65]^,[66]^,[67] […] Next, PBS was aspirated, and the changes in the baseline current were monitored in real-time, using 20 μM, 50 μM, 100 μM, 200 μM, 500 μΜ, 1000 μM, 1500 μM, 2000 μM, and 4000 μM of purified Smc3 head domain. Kd values were calculated using DataLINE 2.0 software by applying either a Hill equation fit or using kon and koff values at a single concentration. […]

For KRFKDMEYLSGGEKTGGYGRKKRRQRRR [CIP3-TAT], the Kd runs as follows: (with ATP (10 mM), Smc3 incubated with ATP before measuring, Smc3 head domain 20-4000 μM (0.02–4 mM)) 544.2 ± 0.06 nM; (without ATP, Smc3 head domain 20-4000 μM (0.02–4 mM) in PBS) 53.86 ± 0.03 nM.
